Experiments:
human G9a enzyme = human G9a enzyme (Homo sapiens (Human), UniProt Q96KQ7); experiment: G9a enzyme activity assay (TR-FRET); format: biochemical; details: 1 hour at room temperature
Experimental: G9a Enzyme Activity Assay
The biochemical assay to measure G9a enzyme activity relies on time-resolved fluorescence energy transfer (TR-FRET) between europium cryptate (donor) and XL665 (acceptor). TR-FRET is observed when biotinylated histone monomethyl-H3K9 peptide is incubated with cryptate-labeled anti-dimethyl-histone H3K9 antibody (CisBio Cat#61KB2KAE) and streptavidin XL665 (CisBio Cat#610SAXLA), after enzymatic reaction of G9a.
The human G9a enzyme expressed in a baculovirus infected Sf9 cell expression system was obtained from BPS Biosciences (Cat. #51001). Enzyme activity assay was carried out in a white 384-well plate in a final volume of 20 μl, as follow: • 4 μl of vehicle or studied compound 2.5× concentrated prepared in assay buffer (50 mM Tris-HCl, 10 mM NaCl, 4 mM DTT, 0.01% Tween-20 pH9). Final percentage of DMSO was 0.5%. • 2 μl of 1 nM G9a enzyme diluted in assay buffer. Final concentration was 0.2 nM. • Start the reaction by adding 4 μl of substrate mixture containing 20 μM S-adenosylmethionine and 40 nM biotinylated histone monomethyl-H3K9 peptide. • Reaction was carried out during 1 hour at room temperature. • Enzyme activity was stopped by adding 5 μl of cryptate-labeled anti-dimethyl-histone H3K9 antibody. Final concentration 150 nM. • Then, add 5 μl of streptavidin XL665 beads. Final concentration of 16 μM. • Read the plate after 1 hour of incubation at room temperature.
(§1) For each well, fluorescence was measured at 620 nm and 665 nm. A ratio (665 nm/620 nm) was then calculated in order to minimize medium interferences. Positive control was obtained in the presence of the vehicle of the compounds. Negative control was obtained in the absence of G9a enzyme activity. Calculated IC50 values were determined using GraphPrism using 4-parameters inhibition curve.

human DNMT1 = human DNMT1 (Homo sapiens (Human), UniProt P26358); experiment: DNMT1 enzyme activity assay (TR-FRET, EPIgeneous methyltransferase assay); format: biochemical; details: 15 minutes at 37° C.
Experimental: DNMT1 Enzyme Activity Assay
The biochemical assay to measure DNMT1 enzyme activity relies on time-resolved fluorescence energy transfer (TR-FRET) between lumi4-Tb (donor) and d2 (acceptor) using the EPlgeneous methyltransferase assay (CisBio Cat#62SAHPEB). TR-FRET is observed when antibody specific to S-adenosylhomocysteine labeled with Lumi4-Tb is incubated with d2-labeled S-adenosylhomocysteine. TR-FRET signal is inversely proportional to the concentration of SAH, product of DNMT1 enzyme activity, in the sample. The human DNMT1 was obtained from Reaction Biology Corp. (Cat# DMT-21-124).
Enzyme activity assay was carried out in a white 384-well plate in a final volume of 20 μl, as follow: • 4 μl of vehicle or studied compound 2.5× concentrated prepared in assay buffer (50 mM Tris-HCl, 1 mM EDTA, 1 mM DTT, 0.1% Triton X-100, 5% glycerol pH 7.5). Final percentage of DMSO was 0.5%. • 2 μl of […] DNMT1 enzyme diluted in assay buffer. Final concentration was 20 nM. • Start the reaction by adding 4 μl of substrate mixture containing 1 μM S-adenosylmethionine and 1 μM poly-deoxy inosine poly-deoxy cytosine (pdI-pdC) DNA. • Reaction was carried out during 15 minutes at 37° C. • Enzyme activity was stopped by adding 2 μl of buffer one of the EPIgeneous methyltransferase assay. • After 10 minutes at room temperature, it was added 4 μl of antibody specific to S-adenosylhomocysteine labeled with Lumi4-Tb 50× diluted in buffer two of the EPIgeneous methyltransferase assay. • Add 4 μl of d2-labeled S-adenosylhomocysteine 31× diluted in buffer two of the EPIgeneous methyltransferase assay. • Read the plate after 1 hour of incubation at room temperature.
as §1

[1] = system: CEMO-1 cells (acute lymphocytic leukemia, ALL); experiment: Cell proliferation assay (CellTiter 96 Aqueous One), CEMO-1; format: cell-based; details: CEMO-1 (ALL), 48 hours of treatment
Experimental: (§2) Cell proliferation was analyzed after 48 hours of in vitro treatment using the CellTiter 96 Aqueous One Solution Cell Proliferation Assay (Promega, Madison, W). This is a colorimetric method for determining the number of viable cells in proliferation.
(§3) For the assay, suspension cells were cultured by triplicate at a density of 1×10^6 cells/ml in 96-well plates (100.000 cells/well, 100 μl/well), except for OCI-Ly3 and OCI-Ly10 cell lines which were cultured at a density of 0.5×10^6 cells/ml (50,000 cells/well, 100 μl/well) and for HepG2, Hep3B and PLC/PRF/5 cell lines which were cultured at a density of 3000 cells/well, 100 μl/well). Adherent cells were obtained from 80-90% confluent flasks and 100 μl of cells were seeded at a density of 5000 cells/well in 96-well plates by triplicate. Before addition of the compounds, adherent cells were allowed to attach to the bottom of the wells for 12 hours. In all cases, only the 60 inner wells were used to avoid any border effects.
(§4) After 48 hours of treatment, plates with suspension cells were centrifuged at 800 g for 10 minutes and medium was removed. The plates with adherent cells were flicked to remove medium. Then, cells were incubated with 100 μl/well of medium and 20 μl/well of CellTiter 96 Aqueous One Solution reagent. After 1-3 hours of incubation at 37° C., absorbance was measured at 490 nm in a 96-well plate reader. The background absorbance was measured in wells with only cell line medium and solution reagent. Data was calculated as a percentage of total absorbance of treated cell/absorbance of non treated cells.
(§5) These cancer cell lines and primary cultures correspond to acute lymphocytic leukemia (ALL), CEMO-1, to activated B-cell-like diffuse large B-cell lymphoma (ABC-DLBCL), OCI-Ly3 and OCI-Ly10 and to hepatocellular carcinoma cells (HCC), HepG2, Hep3B and PLC/PRF/5.

[2] = system: HepG2 cells (hepatocellular carcinoma); experiment: Cell proliferation assay (CellTiter 96 Aqueous One), HepG2; format: cell-based; details: Homo sapiens; HepG2 (HCC), 48 hours of treatment
Experimental: as §2, §3, §4, §5

[3] = system: Hep3B cells (hepatocellular carcinoma); experiment: Cell proliferation assay (CellTiter 96 Aqueous One), Hep3B; format: cell-based; details: Homo sapiens; Hep3B (HCC), 48 hours of treatment
Experimental: as §2, §3, §4, §5

Sequence of human G9a enzyme (Q96KQ7 whole entry): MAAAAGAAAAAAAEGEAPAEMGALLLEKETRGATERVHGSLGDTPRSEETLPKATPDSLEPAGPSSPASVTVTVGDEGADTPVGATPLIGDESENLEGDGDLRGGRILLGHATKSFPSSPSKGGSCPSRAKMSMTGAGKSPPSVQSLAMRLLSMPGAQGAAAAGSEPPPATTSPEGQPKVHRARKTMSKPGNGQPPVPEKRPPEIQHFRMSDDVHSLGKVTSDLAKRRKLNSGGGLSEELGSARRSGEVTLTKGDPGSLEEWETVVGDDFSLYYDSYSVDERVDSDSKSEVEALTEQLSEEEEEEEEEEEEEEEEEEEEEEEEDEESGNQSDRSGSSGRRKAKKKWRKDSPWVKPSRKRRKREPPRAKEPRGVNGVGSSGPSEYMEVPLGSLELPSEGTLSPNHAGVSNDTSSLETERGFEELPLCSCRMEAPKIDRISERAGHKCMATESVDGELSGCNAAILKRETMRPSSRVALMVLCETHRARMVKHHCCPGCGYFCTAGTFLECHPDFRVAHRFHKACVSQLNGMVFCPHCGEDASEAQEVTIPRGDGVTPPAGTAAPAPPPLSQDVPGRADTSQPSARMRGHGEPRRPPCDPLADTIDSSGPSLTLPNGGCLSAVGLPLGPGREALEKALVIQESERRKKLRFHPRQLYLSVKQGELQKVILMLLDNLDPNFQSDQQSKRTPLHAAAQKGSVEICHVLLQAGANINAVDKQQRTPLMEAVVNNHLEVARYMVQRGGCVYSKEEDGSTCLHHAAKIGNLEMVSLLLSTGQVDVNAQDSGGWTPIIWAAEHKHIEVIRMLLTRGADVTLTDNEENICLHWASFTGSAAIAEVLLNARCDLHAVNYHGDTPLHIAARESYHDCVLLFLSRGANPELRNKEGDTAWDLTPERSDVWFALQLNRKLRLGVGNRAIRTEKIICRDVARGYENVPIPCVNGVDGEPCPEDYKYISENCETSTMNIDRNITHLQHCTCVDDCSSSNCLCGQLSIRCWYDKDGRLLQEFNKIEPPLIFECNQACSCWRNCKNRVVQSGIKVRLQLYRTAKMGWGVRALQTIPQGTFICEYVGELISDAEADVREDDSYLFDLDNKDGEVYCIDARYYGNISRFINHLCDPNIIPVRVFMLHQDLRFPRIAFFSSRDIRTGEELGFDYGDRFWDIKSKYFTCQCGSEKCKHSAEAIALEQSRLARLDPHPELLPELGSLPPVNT
Sequence of human DNMT1 (P26358 whole entry): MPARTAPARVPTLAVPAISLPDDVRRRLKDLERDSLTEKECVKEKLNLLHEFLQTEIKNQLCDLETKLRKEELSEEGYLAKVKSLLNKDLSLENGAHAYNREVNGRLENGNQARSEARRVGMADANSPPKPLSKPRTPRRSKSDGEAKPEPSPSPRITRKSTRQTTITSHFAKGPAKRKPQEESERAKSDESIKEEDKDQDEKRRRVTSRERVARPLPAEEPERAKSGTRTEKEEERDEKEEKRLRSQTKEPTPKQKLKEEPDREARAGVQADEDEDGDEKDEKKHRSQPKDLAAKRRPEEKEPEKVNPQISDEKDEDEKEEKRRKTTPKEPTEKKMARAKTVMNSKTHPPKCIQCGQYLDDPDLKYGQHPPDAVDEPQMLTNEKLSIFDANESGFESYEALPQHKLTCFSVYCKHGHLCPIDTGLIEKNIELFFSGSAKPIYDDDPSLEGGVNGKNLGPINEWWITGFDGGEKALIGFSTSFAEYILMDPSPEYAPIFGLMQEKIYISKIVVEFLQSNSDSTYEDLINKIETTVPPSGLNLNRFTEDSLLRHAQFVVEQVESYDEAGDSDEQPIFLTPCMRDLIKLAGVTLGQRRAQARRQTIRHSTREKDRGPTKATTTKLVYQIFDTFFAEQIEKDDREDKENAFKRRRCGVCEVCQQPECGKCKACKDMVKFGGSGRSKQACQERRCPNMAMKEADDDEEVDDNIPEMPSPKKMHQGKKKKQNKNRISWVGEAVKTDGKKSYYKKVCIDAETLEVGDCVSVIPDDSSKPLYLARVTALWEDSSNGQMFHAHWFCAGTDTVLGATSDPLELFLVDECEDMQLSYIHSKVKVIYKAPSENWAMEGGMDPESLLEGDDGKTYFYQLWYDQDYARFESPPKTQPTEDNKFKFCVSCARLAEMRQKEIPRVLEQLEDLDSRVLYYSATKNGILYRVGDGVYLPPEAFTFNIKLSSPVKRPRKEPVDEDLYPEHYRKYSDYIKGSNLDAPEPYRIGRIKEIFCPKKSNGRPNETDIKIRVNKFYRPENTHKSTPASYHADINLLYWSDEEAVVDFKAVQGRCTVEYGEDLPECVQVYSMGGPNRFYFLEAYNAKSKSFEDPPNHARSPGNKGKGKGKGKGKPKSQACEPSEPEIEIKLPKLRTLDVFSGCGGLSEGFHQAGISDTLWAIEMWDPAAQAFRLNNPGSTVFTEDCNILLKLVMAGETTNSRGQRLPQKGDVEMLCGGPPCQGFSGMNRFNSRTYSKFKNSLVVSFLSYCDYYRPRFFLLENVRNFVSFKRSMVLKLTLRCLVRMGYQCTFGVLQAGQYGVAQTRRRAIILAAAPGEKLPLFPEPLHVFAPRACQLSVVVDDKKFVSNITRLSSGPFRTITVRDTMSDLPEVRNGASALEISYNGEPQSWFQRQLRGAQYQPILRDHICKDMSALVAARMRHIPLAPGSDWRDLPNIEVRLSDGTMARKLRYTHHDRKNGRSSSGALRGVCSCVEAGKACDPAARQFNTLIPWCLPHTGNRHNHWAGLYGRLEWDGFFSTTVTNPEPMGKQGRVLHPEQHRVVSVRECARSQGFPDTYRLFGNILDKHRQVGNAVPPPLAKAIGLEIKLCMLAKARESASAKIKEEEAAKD

## COc1cc2c3c(c(-c4ccc(C)o4)nc2cc1OCCCN1CCCC1)CC[C@H](CC1CCN(C)CC1)N3 (single isomer, unassigned) [Compound 2-09]
Human G9a enzyme
  IC50: < 100 nM
Human DNMT1
  IC50: 500 to 1000 nM

## COc1cc2c3c(c(-c4ccc(C)o4)nc2cc1OCCCN1CCCC1)CC[C@@H](CC1CCN(C)CC1)N3 (single isomer, unassigned) [Compound 2-10]
Human G9a enzyme
  IC50: < 100 nM
Human DNMT1
  IC50: 500 to 1000 nM

## COc1cc2c(cc1OCCCN1CCCC1)nc(-c1ccccc1)c1cc(CC3CCN(C)CC3)[nH]c12 [Compound 1-05]
Human G9a enzyme
  IC50: 100 to 500 nM
Human DNMT1
  IC50: 500 to 1000 nM

## COc1cc2c(cc1OCCCN1CCCC1)nc(-c1cc(C)oc1C)c1cc(CC3CCN(C)CC3)[nH]c12 [Compound 1-06]
Human G9a enzyme
  IC50: 500 to 1000 nM
Human DNMT1
  IC50: 1000 to 10000 nM

## COc1ccc2c3c(c(-c4ccc(C)o4)nc2c1)CCCN3 [Compound 2-01, 8-methoxy-5-(5-methyl-2-furyl)-1,2,3,4-tetrahydrobenzo[h][1,6]naphthyridine]
Human G9a enzyme
  IC50: > 10000 nM
Human DNMT1
  IC50: 1000 to 10000 nM

## Cc1ccc(-c2nc3cc(OCCCN4CCCC4)ccc3c3c2CCCN3)o1 [Compound 2-02, 5-(5-methyl-2-furyl)-8-(3-pyrrolidin-1-ylpropoxy)-1,2,3,4-tetrahydrobenzo[h][1,6]naphthyridine]
Human G9a enzyme
  IC50: 1000 to 10000 nM
Human DNMT1
  IC50: 500 to 1000 nM

## COc1cc2c3c(c(-c4ccc(C)o4)nc2cc1OCCCN1CCCC1)CCCN3 [Compound 2-03, 9-methoxy-5-(5-methyl-2-furyl)-8-(3-pyrrolidin-1-ylpropoxy)-1,2,3,4-tetrahydrobenzo[h][1,6]naphthyridine]
[1]
  GI50: 1000 to 10000 nM
Human G9a enzyme
  IC50: < 100 nM
Human DNMT1
  IC50: 1000 to 10000 nM

## COc1cc2c3c(c(-c4ccc(C)o4)nc2cc1OCCCN1CCCC1)CCCN3CCCN1CCCC1 [Compound 2-04, 9-methoxy-5-(5-methyl-2-furyl)-8-(3-pyrrolidin-1-ylpropoxy)-1-(3-pyrrolidin-1-ylpropyl)-3,4-dihydro-2H-benzo[h][1,6]naphthyridine]
Human G9a enzyme
  IC50: > 10000 nM
Human DNMT1
  IC50: 500 to 1000 nM

## COc1cc2c3c(c(-c4ccc(C)o4)nc2cc1OCCCN1CCCC1)CCC(CC1CCNCC1)N3 (stereo not drawn) [Compound 2-05, 9-methoxy-5-(5-methyl-2-furyl)-2-(4-piperidylmethyl)-8-(3-pyrrolidin-1-ylpropoxy)-1,2,3,4-tetrahydrobenzo[h][1,6]naphthyridine]
Human G9a enzyme
  IC50: < 100 nM
Human DNMT1
  IC50: 500 to 1000 nM

## COc1cc2c3c(c(-c4ccc(C)o4)nc2cc1OCCCN1CCCC1)CCC(CC1CCN(C(C)=O)CC1)N3 (stereo not drawn) [Compound 2-11, 1-[4-[[9-methoxy-5-(5-methyl-2-furyl)-8-(3-pyrrolidin-1-ylpropoxy)-1,2,3,4-tetrahydrobenzo[h][1,6]naphthyridin-2-yl]methyl]-1-piperidyl]ethanone]
Human G9a enzyme
  IC50: < 100 nM
Human DNMT1
  IC50: 1000 to 10000 nM

## COc1cc2c3c(c(-c4ccc(C)o4)nc2cc1OCCCN1CCCC1)CCC(CC1CCN(C2CCCCC2)CC1)N3 (stereo not drawn) [Compound 2-12, 2-[(1-cyclohexyl-4-piperidyl)methyl]-9-methoxy-5-(5-methyl-2-furyl)-8-(3-pyrrolidin-1-ylpropoxy)-1,2,3,4-tetrahydrobenzo[h][1,6]naphthyridine]
[2]
  GI50: 100 to 1000 nM
[1]
  GI50: 100 to 1000 nM
Human G9a enzyme
  IC50: < 100 nM
Human DNMT1
  IC50: 500 to 1000 nM
[3]
  GI50: 100 to 1000 nM

## COc1cc2c3c(c(-c4cc(C)oc4C)nc2cc1OCCCN1CCCC1)CCC(CC1CCN(C)CC1)N3 (stereo not drawn) [Compound 2-13, 9-methoxy-5-(2,5-dimethyl-3-furyl)-2-[(1-methyl-4-piperidyl)methyl]-8-(3-pyrrolidin-1-ylpropoxy)-1,2,3,4-tetrahydrobenzo[h][1,6]naphthyridine]
Human G9a enzyme
  IC50: < 100 nM
Human DNMT1
  IC50: 1000 to 10000 nM

## COc1cc2c(cc1OCCCN1CCCC1)nc(-c1ccc(C)o1)c1cccnc12 [Compound 3-01, 9-methoxy-5-(5-methyl-2-furyl)-8-(3-pyrrolidin-1-ylpropoxy)benzo[h]-[1,6]naphthyridine]
Human G9a enzyme
  IC50: 1000 to 10000 nM
Human DNMT1
  IC50: 1000 to 10000 nM

## COc1cc2c(cc1OCCCN1CCCC1)nc(-c1ccc(C)o1)c1ccc(CC3CCNCC3)nc12 [Compound 3-02, 9-methoxy-5-(5-methyl-2-furyl)-2-(4-piperidylmethyl)-8-(3-pyrrolidin-1-ylpropoxy)benzo[h][1,6]naphthyridine]
Human G9a enzyme
  IC50: 100 to 500 nM
Human DNMT1
  IC50: 500 to 1000 nM

## COc1cc2c(cc1OCCCN1CCCC1)nc(-c1ccc(C)o1)c1ccc(CC3CCN(C)CC3)nc12 [Compound 3-03, 9-methoxy-5-(5-methyl-2-furyl)-2-[(1-methyl-4-piperidyl)methyl]-8-(3-pyrrolidin-1-ylpropoxy)benzo[h][1,6]naphthyridine]
Human G9a enzyme
  IC50: < 100 nM
Human DNMT1
  IC50: 1000 to 10000 nM

## COc1cc2c(cc1OCCCN1CCCC1)nc(-c1cc(C)oc1C)c1ccc(CC3CCN(C)CC3)nc12 [Compound 3-04, 9-methoxy-5-(2,5-dimethyl-3-furyl)-2-[(1-methyl-4-piperidyl)methyl]-8-(3-pyrrolidin-1-ylpropoxy)benzo[h][1,6-]naphthyridine]
Human G9a enzyme
  IC50: 100 to 500 nM
Human DNMT1
  IC50: > 10000 nM

## COc1cc2c(cc1OCCCN1CCCC1)nc(-c1ccc(C)o1)c1c(=O)n(C3CCN(C)CC3)[nH]c12 [Compound 4-03, 8-methoxy-4-(5-methyl-2-furyl)-2-(1-methyl-4-piperidyl)-7-(3-pyrrolidin-1-ylpropoxy)-1H-pyrazolo[4,3-c]quinolin-3-one]
Human G9a enzyme
  IC50: > 10000 nM
Human DNMT1
  IC50: 1000 to 10000 nM

## COc1cc2c(cc1OCCCN1CCCC1)nc(-c1ccc(C)o1)c1c(=O)n(CC3CCN(C)CC3)[nH]c12 [Compound 4-04, 8-methoxy-4-(5-methyl-2-furyl)-2-[(1-methyl-4-piperidyl)methyl]-7-(3-pyrrolidin-1-ylpropoxy)-1H-pyrazolo[4,3-c]quinolin-3-one]
Human G9a enzyme
  IC50: > 10000 nM
Human DNMT1
  IC50: 1000 to 10000 nM

## COc1cc2c(cc1OCCCN1CCCC1)nc(-c1ccc(C)o1)c1c(=O)n(CC3CCN(C)CC3)n(CC3CCN(C)CC3)c12 [Compound 4-05, 8-methoxy-4-(5-methyl-2-furyl)-1,2-bis[(1-methyl-4-piperidyl)methyl]-7-(3-pyrrolidin-1-ylpropoxy)pyrazolo[4,3-c]quinolin-3-one]
Human G9a enzyme
  IC50: > 10000 nM
Human DNMT1
  IC50: 1000 to 10000 nM
